BindingDB's records for doi:10.1038/sj.bjp.0705908 (Abbott Laboratories, 2004)
pKi: −log10 of the molar value.

Biological target: T1, Calcium-activated potassium channel subunit beta (Sus scrofa, UniProt C0KY85)
T1 sequence (C0KY85 whole entry): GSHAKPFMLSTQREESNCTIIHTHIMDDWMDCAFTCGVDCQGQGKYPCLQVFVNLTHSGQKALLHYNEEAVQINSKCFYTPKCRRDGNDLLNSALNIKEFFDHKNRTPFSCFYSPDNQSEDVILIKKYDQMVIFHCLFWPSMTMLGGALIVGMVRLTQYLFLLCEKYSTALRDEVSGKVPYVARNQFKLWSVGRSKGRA

pKi: 7.97
Compound: CCC(C)(C)NC(=NC#N)Nc1cccnc1 [NSC_43345]
